Results from paper PMC7934981, “n-Propyl 6-amino-2,6-dideoxy-2,2-difluoro-β-D-glucopyranoside is a good inhibitor for the β-galactosidase from E. coli” (Medicinal Chemistry Research, 2021).
Like-named read-outs stand apart in the source and are kept apart here.

Experiments:
[1] = Cytotoxicity, sulforhodamine B (SRB) assay, nonmalignant cells; type: cell-based, mouse; details: NIH 3T3 fibroblasts (nonmalignant); for IC50 at 3 days: nonmalignant NIH 3T3 mouse fibroblasts, no significant cytotoxicity; for EC50 at 3 days: mouse, as restated in the conclusion, NIH 3T3, read-out: EC50, cytotoxicity (SRB assays)
Protocol: (§1) Low or absent cytotoxicity is a mandatory requirement for subsequent therapeutic use of the compounds as glycosidase inhibitors. Therefore, their cytotoxicity was determined.
(§2) The cell lines were obtained from Department of oncology (Martin-Luther-University Halle-Wittenberg). Cultures were maintained as monolayers in RPMI 1640 medium with L-glutamine (Capricorn Scientific GmbH, Ebsdorfergrund, Germany) supplemented with 10% heat inactivated fetal bovine serum (Sigma-Aldrich Chemie GmbH, Steinheim, Germany) and penicillin/streptomycin (1%, Capricorn Scientific GmbH, Ebsdorfergrund, Germany) at 37 °C in a humidified atmosphere with 5% CO2.
(§3) The cytotoxicity of the compounds was evaluated using the SRB (Kiton-Red S, ABCR) micro culture colorimetric assay using […] cells in 96-well plates with the seeding of the cells on day 0 applying appropriate cell densities to prevent confluence of the cells during the period of the experiment. On day 1, the cells were treated with six different concentrations (1, 3, 7, 12, 20, and 30 μM); thereby, the final concentration of DMSO was always < 0.5%, generally regarded as nontoxic to the cells. On day 4, the supernatant medium was discarded; the cells were fixed with 10% trichloroacetic acid. After another day at 4 °C, the cells were washed in a strip washer and dyed with the SRB solution (100 μL, 0.4% in 1% acetic acid) for about 20 min to be followed by washing of the plates (four times, 1% acetic acid) and air-drying overnight. Furthermore, tris base solution (200 μL, 10 mM) was added to each well and absorbance was measured at λ = 570 nm employing a reader (96-wells, Tecan Spectra, Crailsheim, Germany).

[2] = target: T1, β-galactosidase from E. coli (Escherichia coli, UniProt P00722); assay: Glycosidase inhibition, p-nitrophenolate assay; type: biochemical; details: mean of triplicate experiments
T1 construct: purchased
Protocol: (§4) An in vitro evaluation of these compounds to act as an enzyme inhibitor using a panel of commercially available glycosidases was performed (Table 1) using p-nitrophenolate assays.
(§5) The corresponding p-nitrophenyl glycoside and the inhibitors were dissolved in NaOAc buffer (0.05 M, pH = 6.0) reaching final concentrations of 1.0, 1.11, 1.25, 1.43, 1.67, 2.0, 2.5, 3.33, 5.0, and 10 mM. Further dilutions (if necessary) were made in the ratios 1:60, 1:50, 1:40, 1:30, 1:20, 1:10, and 1:5. The ice-cooled solution of the enzymes was contained between 4.0 and 4.5 U/mL. The kinetic assays were performed in 96-well microtiter plates. The following solutions were pipetted per well: p-nitrophenyl glycoside (100 μL), enzyme (50 μL), inhibitor (100 μL), and standard (p-nitrophenol, 5 μL). Immediately after addition, UV/Vis absorption was measured at 42 °C and λ = 415 nm for 20 min with a single measurement interval of 50 s.

[3] = target: T2, α-galactosidase from green coffee beans (Coffea arabica, UniProt Q42656); assay: Glycosidase inhibition, p-nitrophenolate assay; type: biochemical; details: mean of triplicate experiments
T2 construct: purchased
Protocol: as §4, §5

[4] = target: T3, α-glucosidase from Baker’s yeast (Saccharomyces cerevisiae, UniProt P53341); assay: Glycosidase inhibition, p-nitrophenolate assay; type: biochemical
T3 construct: purchased
Protocol: as §4, §5

[5] = Cytotoxicity, sulforhodamine B (SRB) assay, cancer cell panel; type: cell-based, human; details: for EC50 at 3 days: as restated in the conclusion, human cancer cell lines, read-out: EC50, cytotoxicity (SRB assays); for IC50 at 3 days: panel of 15 human cancer cell lines, no significant cytotoxicity
Protocol: as §1, §2, §3

[6] = target: β-glucosidase from almonds; assay: Glycosidase inhibition, p-nitrophenolate assay; type: biochemical; details: mean of triplicate experiments, n.a. = no activity
Protocol: as §4, §5

[7] = tested on: panel of commercially available glycosidases; assay: Glycosidase panel, type of inhibition and selectivity (p-nitrophenolate assays); type: biochemical; details: panel of five glycosidases
Protocol: as §4, §5

[8] = p-nitrophenolate assay, mean of triplicate experiments, read-out: Ki, α-glucosidase from Baker’s yeast

T1 sequence (P00722 2-1024 limits assumed): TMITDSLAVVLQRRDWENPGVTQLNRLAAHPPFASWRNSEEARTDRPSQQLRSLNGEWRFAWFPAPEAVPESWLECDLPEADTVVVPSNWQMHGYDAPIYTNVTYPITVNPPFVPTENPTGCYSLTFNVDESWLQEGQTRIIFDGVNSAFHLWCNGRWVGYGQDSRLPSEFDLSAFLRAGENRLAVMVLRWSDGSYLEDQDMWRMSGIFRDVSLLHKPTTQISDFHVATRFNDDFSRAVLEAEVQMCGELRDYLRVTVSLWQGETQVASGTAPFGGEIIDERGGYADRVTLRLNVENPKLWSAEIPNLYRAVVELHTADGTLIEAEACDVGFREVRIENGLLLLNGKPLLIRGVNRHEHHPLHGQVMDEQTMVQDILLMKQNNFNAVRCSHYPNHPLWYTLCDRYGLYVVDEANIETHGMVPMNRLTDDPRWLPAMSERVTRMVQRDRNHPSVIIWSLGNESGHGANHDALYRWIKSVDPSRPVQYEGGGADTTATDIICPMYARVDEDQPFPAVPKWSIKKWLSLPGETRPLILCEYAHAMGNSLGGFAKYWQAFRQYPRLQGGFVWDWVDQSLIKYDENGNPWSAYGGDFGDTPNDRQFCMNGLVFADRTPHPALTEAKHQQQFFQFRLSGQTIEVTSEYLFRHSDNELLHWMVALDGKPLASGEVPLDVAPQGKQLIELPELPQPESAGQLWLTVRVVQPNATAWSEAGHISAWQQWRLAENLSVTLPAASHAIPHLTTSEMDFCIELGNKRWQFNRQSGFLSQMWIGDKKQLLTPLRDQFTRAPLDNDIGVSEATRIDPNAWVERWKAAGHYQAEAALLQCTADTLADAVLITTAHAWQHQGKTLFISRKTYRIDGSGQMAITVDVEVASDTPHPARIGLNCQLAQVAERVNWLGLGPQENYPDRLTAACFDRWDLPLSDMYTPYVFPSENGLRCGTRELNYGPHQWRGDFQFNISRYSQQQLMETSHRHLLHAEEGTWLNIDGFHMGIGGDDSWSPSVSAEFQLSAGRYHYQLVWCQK
T2 sequence (Q42656 16-378): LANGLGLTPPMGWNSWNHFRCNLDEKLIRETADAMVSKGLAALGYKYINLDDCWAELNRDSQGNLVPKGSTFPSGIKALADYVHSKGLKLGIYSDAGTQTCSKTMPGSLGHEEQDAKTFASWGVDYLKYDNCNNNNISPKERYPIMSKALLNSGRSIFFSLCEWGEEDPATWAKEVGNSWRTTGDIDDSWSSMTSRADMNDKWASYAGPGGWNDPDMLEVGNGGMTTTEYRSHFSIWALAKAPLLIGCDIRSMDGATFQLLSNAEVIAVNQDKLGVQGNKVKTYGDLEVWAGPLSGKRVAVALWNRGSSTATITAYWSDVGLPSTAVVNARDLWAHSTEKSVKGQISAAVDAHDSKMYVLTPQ
T3 sequence (P53341 whole entry): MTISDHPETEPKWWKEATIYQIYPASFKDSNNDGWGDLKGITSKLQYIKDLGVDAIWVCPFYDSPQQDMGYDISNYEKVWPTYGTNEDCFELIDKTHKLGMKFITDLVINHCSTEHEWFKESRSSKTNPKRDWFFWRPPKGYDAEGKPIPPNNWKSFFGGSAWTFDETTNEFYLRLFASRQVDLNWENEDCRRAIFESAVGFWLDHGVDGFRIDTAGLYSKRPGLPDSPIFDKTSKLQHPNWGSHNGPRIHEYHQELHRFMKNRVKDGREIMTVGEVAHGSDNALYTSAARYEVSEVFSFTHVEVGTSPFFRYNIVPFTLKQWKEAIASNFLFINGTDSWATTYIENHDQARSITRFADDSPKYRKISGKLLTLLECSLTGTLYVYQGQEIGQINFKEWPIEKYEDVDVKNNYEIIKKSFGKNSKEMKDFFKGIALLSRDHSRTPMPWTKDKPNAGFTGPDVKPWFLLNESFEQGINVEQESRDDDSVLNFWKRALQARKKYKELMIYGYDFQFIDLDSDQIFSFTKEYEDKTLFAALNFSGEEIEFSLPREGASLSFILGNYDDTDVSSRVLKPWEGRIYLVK

| SMILES | IC50 at 3 days [1] [µM] | EC50 at 3 days [1] [µM] | Ki [2] [µM] | Ki [3] [µM] | Ki [4, 8] [µM] | EC50 at 3 days [5] [µM] | IC50 at 3 days [5] [µM] | Ki [6] [µM] | selectivity among the glycosidases [7] | Ki [4] [µM] |
| --- | --- | --- | --- | --- | --- | --- | --- | --- | --- | --- |
| CCCO[C@@H]1O[C@H](CN)[C@@H](O)C(F)(F)[C@H]1O [compound 16, n-Propyl 6-amino-3,6-dideoxy-3,3-difluoro-β-D-ribo-hexopyranoside] | > 50 | > 50 | 2.16 ± 0.93 | 4.3 ± 0.24 | 4.13 ± 0.26 | > 50 | > 50 |  |  |  |
| CCCO[C@@H]1O[C@H](CN)[C@@H](O)[C@H](O)C1(F)F [compound 8, n-Propyl 6-amino-2,6-dideoxy-2,2-difluoro-β-D-glucopyranoside] | > 50 | > 50 | 0.5 ± 0.09 | 3.81 ± 0.57 | 1.83 ± 0.16 | > 50 | > 50 | 1.76 ± 0.13 | nonselective inhibitor |  |
| OCCN1C[C@H](O)[C@@H](O)[C@H](O)[C@H]1CO [Miglitol, reference compound] |  |  | 0.16 ± 0.06 | 13.9 ± 0.15 |  |  |  | 0.21 ± 0.05 |  | 9.92 ± 0.14 |
